# Earlier results as cited in patent publication US20050187172A1, “Combination of a Cox-2 inhibitor and a DNA topoisomerase I inhibitor for treatment of neoplasia” (priority 2003, published 2005).
# Counter-ions that a name gives are not always drawn. Like-named read-outs stand apart in the source and are kept apart here.
# Columns and labels:
# [1] = not given; remark: listed apart in the source
# [2] = for Toxicity (reported toxic effects): Table 3, Toxicity column
# [3] = mice, single IV infusion
# [4] = Grade 2 or higher toxic effects
# [5] = dose limiting hematological toxicity
smiles,measurement,setting,value
"CCc1c2c(nc3ccc(OC(=O)N4CCC(N5CCCCC5)CC4)cc13)-c1cc3c(c(=O)n1C2)COC(=O)[C@]3(O)CC [Irinotecan hydrochloride, (4S)-4,11-diethyl-4-hydroxy-9-((4-piperidinopiperidino)carbonyloxy)-1H-pyrano(3′,4′:6,7)indolizino(1,2-b)quinoline-3,14(4H,12H)dione hydrochloride.]",Lethality in mice,,Lethality in mice: 111 mg/kg
"CC[C@@]1(O)C(=O)OCc2c1cc1n(c2=O)Cc2cc3c([N+](=O)[O-])cccc3nc2-1 [rubitecan, 1H-Pyrano[3′,4′:6,7]indolizino[1,2-b]quinoline-3,14(4H,12H)-dione, -4-ethyl-4-hydroxy-10-nitro-, (S)-]",chemical cystitis,[1]; [4],"cystitis (25%),"
same,diarrhea,[1]; [4],"diarrhea (32%), chemical"
same,neutropenic sepsis,[1]; [4],"(21%), and weight loss"
same,weight loss,[1]; [4],(18%).
same,"grade 4 anemia, share of patients",[1]; [5],grade 4 anemia in 29%
same,"thrombocytopenia (grade 4), share of patients",[1]; [5],18%. Grade 2 or higher
same,Maximum tolerated dose,[2]; over five consecutive days repeated every week,dose: 1.5 mg/m2/day
CCc1c2c(nc3ccc(OC(=O)N4CCC(N5CCCCC5)CC4)cc13)-c1cc3c(c(=O)n1C2)COC(=O)[C@]3(O)CC [Irinotecan],Toxicity (reported toxic effects),[2],Diarrhea and myelosup-
"CC[C@@]1(O)C(=O)OCc2c1cc1n(c2=O)Cc2cc3c(CN(C)C)c(O)ccc3nc2-1 [Topotecan, 1H-Pyrano[3′,4′:6,7]indolizino[1,2-b]quinoline-3,14(4,H,12H)-dione, 10-[(dimethylamino)methyl]-4-ethyl-4,9-dihydroxy-, (S)-]",Dose limiting toxicity (DLT),[2]; in vivo,Myelosup-pression dose-
same,Maximally tolerated dose,[2]; × 5 d every 3 to 4 wk,dose: 1.5 mg/m^2 × 5 d
"O=C1c2c(c3c4ccc(O)cc4n([C@@H]4O[C@H](CO)[C@@H](O)[C@H](O)[C@H]4O)c3c3[nH]c4cc(O)ccc4c23)C(=O)N1NC(CO)CO [J 107088, 5H-Indolo[2,3-a]pyrrolo[3,4-c]carbazole-5,7(6H)-dione, 12-β-D-glucopyranosyl-12,13-dihydro-2,10-dihydroxy-6-[[2-hydroxy-1-(hydroxymethyl)ethyl]amino]-]",Maximum tolerated dose,[2]; in vivo,dose: 7.5 mg/m2
"CC[C@@]1(O)C(=O)OCc2c1cc1n(c2=O)Cc2cc3c(CN(C)C)c(O)ccc3nc2-1 [Topotecan hydrochloride, (S)-10-((dimethylamino)methyl)-4-ethyl-4,9-dihydroxy-1H-pyrano (3′,4′:6,7)indolizino(1,2-B)quinoline-3,14-(4H,12H)-dione monohydrochloride]",LD10,[3],pression. LD10: mice 75 mg/m^2
same,Dose limiting toxicity (DLT),[2]; in vivo,DLT: Bone marrow sup-
CC[C@@]1(O)C(=O)OCc2c1cc1n(c2=O)Cc2c-1nc1cc3c(cc1c2CN1CCN(C)CC1)OCCO3 [GG211],Dose limiting toxicity (DLT),[2]; in vivo,Hematologic toxicity
"CN(C)CCNC(=O)c1cccc2cc3ccccc3nc12.Cl.Cl [XR-5000, 4-Acridinecarboxamide, N-[2-(dimethylamino)ethyl]-, dihydrochloride]",Toxicity (reported toxic effects),[2],infusion-related arm pain
"CC[C@@]1(O)C(=O)OCc2c1cc1n(c2=O)Cc2cc3c(N)cccc3nc2-1 [9-aminocamptothecin, 1H-Pyrano[3′,4′:6,7]indolizino[1,2-b]quinoline-3,14(4H,12H)-dione, 10-amino-4-ethyl-4-hydroxy-, (S)-]",Dose limiting toxicity (DLT),[2]; in vivo,neutropenia.
same,Maximum tolerated dose,[2]; in vivo,45 mug/square mug/square metre/hr
